{"source": "patent US20220088056A1", "about": "“COMBINATION FOR TREATING CANCER” (NITTO DENKO CORPORATION, priority 2018, published 2022)", "key": {"[1]": {"system": "hsa-miR-345-overexpressing HCT116 cells or control HCT116 cells", "assay": "Cell number counting in hsa-miR-345-overexpressing versus control HCT116 cells after transfection with BcL-XL inhibitor (Example 3)", "type": "cell-based", "conditions": "25 pmol; hsa-miR-345-overexpressing vs hsa-miR-345 wild-type HCT116 line; days 1 and 4 after transfection; FIG. 3", "experimental": "The anticancer activity of a BcL-XL inhibitor was evaluated in cancer cells in which miR-345 was overexpressed by a miR-345-related molecule.\nThe miR-345-related molecule used was Expression plasmid for human microRNA MIR345 (MI0000825, OriGene Technologies, Inc., Compound F).\nA cell line overexpressing miR-345 was established by introducing Compound E to hsa-miR-345 wild-type HCT116 cells using Lipofectamine 3000 (Invitrogen Corp.), and picking up a single clone by drug selection. In the experiment, a clone was used which was confirmed to have the increased expression of hsa-miR-345-5p by qPCR. A hsa-miR-345 wild-type HCT116 cell line as a control was established by introducing Expression plasmid pCMV-MIR Vector (PCMVMIR, OriGene Technologies, Inc., Compound G) to hsa-miR-345 wild-type HCT116 cells using Lipofectamine 3000 (Invitrogen Corp.), and picking up a single clone by drug selection.\nTransfection with Compound A was performed as follows: on the day before transfection, the hsa-miR-345-overexpressing HCT116 cells or the control HCT116 cells were seeded at 0.1×10^5 cells/well to a 6-well tissue culture plastic dish. 25 pmol of Compound A was added into 250 μL of Opti-MEM I Reduced Serum Medium (Invitrogen Corp.) and gently mixed. […] On days 1 and 4 after the transfection, the cell number was counted. […]"}, "[2]": {"system": "human normal dermal fibroblasts NHDF-Ad-Der Fibroblasts", "assay": "Influence on proliferation of normal cells, live and dead cell count with Hoechst 33342 / propidium iodide (Example 5)", "type": "cell-based", "conditions": "1.1+1.1 pmol, day 4 after transfection, compared with control (Compound C and Compound I), FIG. 5", "experimental": "A combination of a BcL-XL inhibitor and a miR-345-related molecule was tested for the presence or absence of its influence on the proliferation of normal cells.\nThe BcL-XL inhibitor used was Compound A, and the miR-345-related molecule used was Compound B. Compound C was used as a negative control of the BcL-XL inhibitor, and Compound I was used as a negative control of the miR-345-related molecule.\nThe normal cells used were human normal dermal fibroblasts NHDF-Ad-Der Fibroblasts (Lonza Group AG, #CC-2511). The cells were cultured in Fibroblast Basal Medium (FBM™, Lonza Group AG, #CC-3131) containing FGM™-2 SingleQuots™ (Lonza Group AG, #CC-4126) under conditions of 37° C. and 5% CO2.\nTransfection with the BcL-XL inhibitor and/or the miR-345-related molecule was performed as follows: on the day before transfection, NHDF was seeded at 0.15×10^4 cells/well to a 96-well tissue culture plastic dish. […] Live and dead cell numbers were counted using Celigo® Image Cytometer (Nexcelom Bioscience, LLC, #Celigo-106-0448) in which the number of cells stained with Hoechst 33342 was regarded as the total of the live and dead cell numbers and the number of cells stained with propidium iodide was regarded as the dead cell number."}}, "data": [{"substance": "Compound A: BcL-XL inhibitor: siRNA, sense 5'-GGUAUUGGUGAGUCGGAUCtt-3' (SEQ ID NO: 4), antisense 5'-GAUCCGACUCACCAAUACCtt-3' (SEQ ID NO: 5) (sense GGUAUUGGUGAGUCGGAUCTT; antisense GAUCCGACUCACCAAUACCTT; chemistry not given here)", "values": [{"measurement": "cell proliferation-suppressing effect (cell number)", "setting": "[1]", "result": "appeared more strongly in the hsa-miR-345-overexpressing line than in the hsa-miR-345 wild-type line"}, {"measurement": "suppression of the proliferation of normal cells", "setting": "[2]", "result": "neither the BcL-XL inhibitor alone or the miR-345-related molecule alone nor their concurrent use suppressed the proliferation of normal cells"}]}]}
